Assay results taken from the CATMoS acute toxicity set (Mansouri et al. 2021).

Assay: GHS categories as the set defines them, by LD50: 1 up to 5, 2 up to 50, 3 up to 300, 4 up to 2000, 5 above 2000 mg/kg
Conditions: rat; in vivo; po
From the text: […]The data set underlying the modeling effort for this project was initially compiled by NICEATM and U.S. EPA’s CCTE. Briefly, LD50 data were collected from rat acute oral systemic toxicity tests, including limit tests, ranges/confidence intervals, and discrete LD50 values. The full data set included 21,200 LD50 entries for 15,688 substances. […] Data were reviewed to ensure that LD50 values with obvious errors in the extracted data such as unit conversion errors (e.g., comma and decimal separator misplacements) were either fixed or removed. After this review, 16,209 LD50 values remained. Many of the chemicals represented had multiple LD50 entries, requiring that a single representative value per Chemical Abstracts Service Registry Number (CASRN) identifier be defined to facilitate modeling efforts. Based on ATWG feedback and to define the representative LD50 as a protective value while accounting for the distribution across multiple LD50s, the median of the lowest quartile was computed using only discrete LD50 values (omitting limit test data and range and confidence interval data). A detailed summary of the data compilation is available online on the NICEATM webpage dedicated to the collaborative modeling project (NTP 2020).
[…][…] For categorical designations, limit test and range/confidence interval LD50 data were integrated wherever possible. As such, the number of chemicals with end point values/calls varies across the modeling end points (Table 3) based on whether chemicals had representative LD50 values and/or other data. If a chemical had both, the representative value was used to determine categorical calls rather than limit test data. Some data were useable only for certain end points and categories depending on the thresholds. For example, ranges that spanned multiple hazard categories were considered only for the binary (very toxic/nontoxic) end points and omitted from rendering a determination for hazard category assignment.
[…]The final data set comprising 11,992 chemicals was split into training and evaluation sets […], respectively. This process was performed semirandomly by ordering chemicals based on the five end points (categorical and continuous LD50 values) and partitioning every fourth record into the evaluation set accordingly. This approach was taken to ensure an equivalent distribution of the LD50 values and the different hazard categories between the training and the evaluation sets without supervised sampling of the chemicals based on structures (Figure 1A). The sources of the chemical structures were also kept equivalent between the two sets, with chemical structures obtained from DSSTox, being the highest quality, representing over 75% of each set (Figure 1B).

Row | Compound | GHS category
1 | CC(=O)OCC1=C(C(=O)O)N2C(=O)C(NC(=O)Cc3cccs3)C2SC1 (stereo not given) | 5
2 | CCCC(=O)c1ccc2c(c1)OC(C)(C)C(=O)N2C | 5
3 | C[C@]12CC[C@H]3[C@@H](CCC4=CC(=O)C=C[C@@]43C)[C@@H]1CC[C@H]2O | 5
4 | C=CC(=O)NCCO | 5
5 | C=CC(=O)OCCCOCC(C)(C)COCCCOC(=O)C=C | 5
6 | CCCCC(CC)CNc1ccc(NCC(CC)CCCC)c2c1C(=O)c1c(O)ccc(O)c1C2=O (stereo not given) | 5
7 | CCN(CC)CCC(C#N)(CC=C(C)C)c1cccc2ccccc12 (stereo not given) | 4
8 | COC[C@H]1CO[C@@](Cn2ccnc2)(c2cc3ccccc3o2)O1 | 4
9 | CCC(C)=NO[Si](ON=C(C)CC)(ON=C(C)CC)c1ccccc1 | 5
10 | CC12CCC3c4ccc(OC(=O)c5ccccc5)cc4CCC3C1CCC2OC(=O)COC(=O)CCCc1ccc(NCCCl)cc1 (stereo not given) | 5
11 | CCCCCCOC=O | 5
12 | O=C1OCCN1N=Cc1c(N2CCCCCC2)nc2ccccn2c1=O | 4
13 | O=C(CCl)OC(=O)CCl | 3
14 | S=C(SSC(=S)N(Cc1ccccc1)Cc1ccccc1)N(Cc1ccccc1)Cc1ccccc1 | 5
15 | CC(C)OC(=O)c1ccccc1OC(N)=O | 5
16 | COc1cc(NS(=O)(=O)c2ccc(N)cc2)ncn1 | 5
17 | O=C(O)CN1C(=O)c2cccc3cccc(c23)C1=O | 5
18 | C=C(C)C(=O)NC(C)C | 5
19 | CC/C=C\CCOC(=O)CC | 5
20 | COc1ccc(N)cc1N | 5
21 | CCn1cc(C(=O)O)c(=O)c2cnc(N3CCCC3)nc21 | 5
22 | OC1CCC(N2CCCCC2)CC1 (stereo not given) | 5
23 | CCCCCCCCCCC=O | 5

Row | Compound | GHS category
24 | ICC1CCC(CI)CC1 (stereo not given) | 5
25 | O=C(O)CCCC/C=C(\c1ccccc1)c1cccnc1 | 5
26 | O=C(O)c1ccc(B(O)O)cc1 | 5
27 | CCN(C(=O)Cl)C1CCCCC1 | 4
28 | Cc1cccc2ncc(C(=O)NC3CCCC3)c(=O)n12 | 3
29 | CCCc1c(Cc2ccc(-c3ccccc3-c3nn[nH]n3)cc2)c(=O)nc2nc[nH]n12 | 4
30 | [C] | 5
31 | CC(C)CCCCCCCOCCCNCCCN | 3
32 | CC(C)(C)C1CCC(C2=C(O)c3ccccc3C(=O)C2=O)CC1 (stereo not given) | 5
33 | CCOC(=O)C1CCC(C(=O)OCC)CC1 (stereo not given) | 5
34 | CCOC(/C=C(\C)CCC=C(C)C)OCC | 5
35 | CCCS(=O)(=O)Nc1ccc(F)c(C(=O)O)c1F | 5
36 | CCOC(=O)c1sc(-c2ccc(OCC(C)C)c(C=O)c2)nc1C | 5
37 | CCOC(=O)C(=O)Nc1nc(-c2ccccc2)cs1 | 5
38 | CON=CC1=CCCN(C(=O)Oc2ccc(C(C)C)cc2)C1 | 4
39 | OCC1C(CO)C2(Cl)C(Cl)=C(Cl)C1(Cl)C2(Cl)Cl (stereo not given) | 5
40 | COc1cc2nc(N3CCN(C(=O)CC(C)O)CC3)nc(N)c2cc1OC (stereo not given) | 5
41 | CCSCCCSc1nnnn1C | 4
42 | CNC(C)C(O)c1ccc(NS(C)(=O)=O)cc1 (stereo not given) | 5
43 | CCOC(=O)C(=O)Nc1cc(OCCOCCOC)ncn1 | 4
44 | OCc1cncs1 | 5
45 | O=C(NCc1ncc(C(F)(F)F)cc1Cl)c1c(Cl)cccc1Cl | 5
46 | CCCNC(=O)c1cnc2ccccn2c1=O | 3

Row | Compound | GHS category
47 | CCCCCCC(=O)OCC | 5
48 | CC(=O)NC(C(=O)O)C(C)(C)S (stereo not given) | 4
49 | C=CCCCCCCCCC(OCC=C(C)CCC=C(C)C)OCC=C(C)CCC=C(C)C (stereo not given) | 5
50 | CCCc1c(Cc2ccc(-c3ccccc3-c3nn[nH]n3)cc2)c(=O)nc2nc(CO)[nH]n12 | 4
51 | CC(C)OC(=O)CCC/C=C\C[C@@H]1[C@@H](CC[C@@H](O)CCc2ccccc2)[C@H](O)C[C@@H]1O | 1
52 | CC(C)(C1CCCO1)C1CCCO1 (stereo not given) | 4
53 | CCCCCCOc1ccc(-c2nc(-c3ccccc3)nc(-c3ccccc3)n2)c(O)c1 | 5
54 | COc1cc2nc(N3CCC(N(C)C(=O)c4ccco4)CC3)nc(N)c2cc1OC | 4
55 | CC(C)CCCCCCCCOCCCNCCC#N | 5
56 | COc1cc(-c2cc(OC)cc(C(C)(C)C)c2O)c(O)c(C(C)(C)C)c1 | 5
57 | CC(C)OC(=O)c1cc(Cl)ccc1OC(N)=O | 5
58 | COc1ccc(C=CC(C)=O)cc1 | 5
59 | CC1(C)Oc2cc(C(=O)c3ccccc3)ccc2NC1=O | 5
60 | C[N+](C)(CCO)CC(O)C[N+](C)(C)CCO | 4
61 | C=CCCCCCCCCC=O | 5
62 | CCc1oc2ccccc2c1C(=O)c1ccc(O)cc1 | 5
63 | CCCCC(CC)COC(=O)OCC(CC)CCCC (stereo not given) | 5
64 | O=C(c1ccccc1)c1cc([N+](=O)[O-])ccc1S(=O)(=O)NCCCN1CCOCC1 | 4
65 | COc1c2ccoc2cc2oc(=O)ccc12 | 5
66 | O=C(O)c1[nH]n(-c2ccc(S(=O)(=O)O)cc2)c(=O)c1/N=N/c1ccc(S(=O)(=O)O)cc1 | 5
67 | O=C1CCCCCCCCCCCCCCCO1 | 5
68 | CC(=O)C(C)O (stereo not given) | 5
69 | CC(=O)c1ccc2c(c1)OCC(=O)N2C | 5

Row | Compound | GHS category
70 | CN1CC(c2ccn(C)n2)CC2c3cccc4[nH]cc(c34)CC21 (stereo not given) | 4
71 | COc1ccc2c(c1)CCN(c1ccccc1)C2c1ccccc1OC (stereo not given) | 4
72 | CCOC(=O)C(=O)Nc1cc(OCCOCc2ccccc2)nc(C)n1 | 4
73 | CCCCCCCCCCCCCCCCCCSSCCCCCCCCCCCCCCCCCC | 5
74 | COC1=C(OC)C(=O)C(CC=C(C)CCC=C(C)CCC=C(C)CCC=C(C)CCC=C(C)CCC=C(C)CCC=C(C)CCC=C(C)CCC=C(C)C)=C(C)C1=O | 5
75 | CCCCCC(=O)OC1(C(C)=O)CCC2C3CCC4=CC(=O)CCC4C3CCC21C (stereo not given) | 5
76 | CC(=O)c1ccc(S(=O)(=O)NC(=O)NC2CCCCC2)cc1 | 5
77 | O=C(C(Cl)Cl)N(CCO)Cc1ccc(Oc2ccc([N+](=O)[O-])cc2)cc1 | 5
78 | CCc1ccc(CC)cc1 | 5
79 | O=c1c2ccccc2[nH]c2cc3c(=O)c4ccccc4[nH]c3cc12 | 5
80 | OC[C@H]1O[C@@H](n2cnc3c(O)ncnc32)[C@H](O)[C@@H]1O | 5
81 | CC(O)CN(CC(C)O)C(=O)CCCCC(=O)N(CC(C)O)CC(C)O (stereo not given) | 5
82 | O=P(Oc1ccccc1)(Oc1ccccc1)Oc1cccc(OP(=O)(Oc2ccccc2)Oc2ccccc2)c1 | 5
83 | O=C(Nc1ccccc1-c1ccc(Cl)cc1)c1cccnc1Cl | 5
84 | COP(=S)(OC)N(C)C(=O)Oc1cccc2c1OC(C)(C)C2 | 3
85 | CC(C)(C)c1ccc2oc(-c3ccc(C=Cc4ccc(-c5ccccc5)cc4)cc3)nc2c1 | 5
86 | NS(=O)(=O)c1ccccc1C(F)(F)F | 4
87 | CC(C)c1cc(C(C)C)c(N)c(C(C)C)c1N | 4
88 | CC(=O)Nc1ccc(Cc2ccccn2)c([N+](=O)[O-])c1 | 3
89 | Cc1ccccc1OC(=O)c1cc(Cl)ccc1OC(N)=O | 5
90 | CCN(CC)CCN(CCN(CC)CC)n1cc(-c2ccc(Cl)cc2)c2cc(C)ccc21 | 4
